This is an account of results in patent US8945853B2, “Detection of intracellular binding events by measuring protein abundance” (DiscoveRx Corporation, priority 2012, dated 2015).

One assay deals with BCL-2 / PL-Bax (Homo sapiens, UniProt P10415). The assay is described as follows: BCL-2 co-expressed with PL-Bax in U2OS cells, disruption by small molecules (FIG. 7A). The following applies: for HillSlope / Bottom (best-fit) / Top (best-fit): PL-Bax; for Bottom (best-fit) / Top (best-fit) / effect on BCL-2 stabilization of Bax: U2OS, overnight; for Bottom (best-fit) / Top (best-fit): luminescence. The class given is cell-based. The protocol:
(§1) Interaction of BCL-2 with a peptide test compound (Bim, Bak, and Bax) was studied.
(§2) The native BCL-2 was co-expressed with each of the ProLabel fusions in U2OS cells. Small molecules that are reported to disrupt BCL-2 interactions were then applied to the cells and incubated overnight.
(§3) Cells were transduced with the indicated target PL-fusion and the untagged protein Bcl-2. The cells were treated with the indicated compounds overnight and the remaining target-PL fusion was detected by lysing the cells in the presence of EA and substrate. Luminescence was measured 30 minutes later.

The target in the next assay is BCL-2 / PL-Bim (Homo sapiens, UniProt P10415). The assay is described as follows: BCL-2 co-expressed with PL-Bim in U2OS cells, disruption by small molecules (FIG. 7B). The class given is cell-based. The following applies: for HillSlope / Bottom (best-fit) / Top (best-fit): PL-Bim; for Bottom (best-fit) / Top (best-fit) / effect on BCL-2/Bim stabilization: U2OS, overnight; for Bottom (best-fit) / Top (best-fit): luminescence. The protocol: as §1, §2, §3

Another assay addresses BCL-2 / PL-Bak (Homo sapiens, UniProt P10415). The assay is described as follows: BCL-2 co-expressed with PL-Bak in U2OS cells, disruption by small molecules (FIG. 7C). The format is cell-based. The procedure: as §1, §2, §3
The target of a further assay is CYP 17A-PL fusion (Homo sapiens, UniProt P05093). The assay is described as follows: CYP17A-PL fusion stabilization in HEK cells (FIG. 11). The format is cell-based. The procedure:
(§4) HEK cells were transduced with fusion protein expression construct. The cells were then treated with different compounds for 3-6 hrs at 37° C. the fusion proteins were then quantified to analyze the effect of different compounds on the stabilization of fusion proteins.

The next assay relates to BRD4 (1)-PL fusion. In words: Bromodomain-PL fusion stability in HEK cells. The format is cell-based. As to conditions: 6 hrs at 37° C. The procedure: To study the effect of compound binding, fusion proteins were prepared using fragments of BRD4 (1) (Accession No. NM_058243), BRD2 (1) (Accession No. NM_005104) and BRDT (1) (Accession No. NM_001242806) (SEQ ID NO. 13, 14 and 15 respectively) and prolabel (PL). The expression construct containing the fusion proteins were used to transducer the HEK cells. Cells were plated in a 384 well-plate and incubated overnight at 37° C./5% CO2 to allow the cells to attach and gro.

Another assay has as its target G9A(918-1198)-PL (Homo sapiens, UniProt Q96KQ7). In words: Half-life of G9A catalytic domain-PL fusion in A549 cells after cycloheximide (FIG. 10). The format is cell-based, humans. The procedure:
Methyltransferases are a group of transferases enzymes involved in DNA methylation. G9a methyltransferase methylates lysine 9 of histone H3 and is present in humans.
The enzyme donor PL fused to the catalytic domain of G9A was expressed in A549 cells, which were plated I a 384-well plate and incubated overnight at 37° C./5% CO2 to allow the cells to attach and grow. […] Both the batches were then treated with cycloheximide to prevent further protein production and the half-life of the fusion protein in both the batches were calculated as shown in FIG. 10. […] UNC0638 is commercially available and is an inhibitor of G9a/GLP methyltransferases. See, e.g. http (colon slash slash) apps.thesgc.org/chemical_probes/UNC0638/#overview, SGC product literature.

Assay [1] has as its target T1, CYP 19A amino acids 1-503-PL fusion (Homo sapiens, UniProt P11511).
T1 construct: expressed in transfected cells; host or cells: HEK
T1 sequence (P11511 1-503): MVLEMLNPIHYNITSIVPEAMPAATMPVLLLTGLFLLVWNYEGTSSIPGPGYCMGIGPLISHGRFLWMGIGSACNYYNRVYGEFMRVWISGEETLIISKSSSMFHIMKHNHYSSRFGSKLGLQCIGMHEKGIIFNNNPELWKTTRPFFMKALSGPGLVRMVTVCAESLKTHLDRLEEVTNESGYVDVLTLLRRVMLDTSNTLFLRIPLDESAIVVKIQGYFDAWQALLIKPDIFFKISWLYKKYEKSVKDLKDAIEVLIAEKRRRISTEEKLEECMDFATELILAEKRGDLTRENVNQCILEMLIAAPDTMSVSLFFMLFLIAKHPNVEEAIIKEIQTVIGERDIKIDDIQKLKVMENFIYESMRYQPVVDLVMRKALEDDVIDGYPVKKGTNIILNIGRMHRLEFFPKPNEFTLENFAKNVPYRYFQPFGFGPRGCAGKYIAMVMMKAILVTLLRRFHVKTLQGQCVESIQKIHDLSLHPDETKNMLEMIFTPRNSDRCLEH
The assay is described as follows: CYP19A-PL fusion stabilization in HEK cells. The format is cell-based. The following applies: data not shown. The procedure: as §4
Arimidex® anastrazole is available from AstraZeneca and is known to bind to aromatase. YM511 (chemical Name: 4-[[(4-Bromophenyl)methyl]-4H-1,2,4-triazol-4-ylamino]benzonitrile) is also an aromatase inhibitor. CYP19 is also known as aromatase.

For assay [2], the target named is T2, BLK (241-494)-PL fusion (Homo sapiens, UniProt P51451). In words: Specificity of binding compounds, BLK-PL fusion in U2OS cells (FIG. 9B). Set-up: BLK peptide containing amino acids from 241-494 were fused with the PL; expressed in transfected cells. The format is cell-based.
Assay [3] concerns the target T2, BLK (241-494)-PL fusion. The assay is described as follows: BLK-PL fusions of varying sequence length treated with dasatinib, EFC chemiluminescence. The class given is cell-based. Also noted: BLK peptide containing amino acids from 241-494 were fused with the PL; expressed in transfected cells; HEK cells are also named. The following applies: 241-494 fusion compared with the other BLK sequence lengths; 3 hours. The protocol:
A number of fusions were constructed that included varying amounts of the protein sequence centered around the kinase active site as defined by homology to other kinases. E.g. fusion containing protein BLK amino acid numbers 241-494, 246-494, 251-494, 256-494, 261-494 and 266-494 were made.
The expression construct containing the fusion protein was used to transduce the HEK cells. The cells were then incubated in the presence of dasatinib for 3 hours.
BLK-PL fusions were then quantified by adding lysis buffer, EA and chemiluminescent substrate. […] Dasatinib, N-(2-chloro-6-methylphenyl)-2-[[6-[4-(2-hydroxyethyl)-1-piperazinyl]-2-methyl-4-pyrimidinyl]amino]-5-thiazole carboxamide monohydrate, is an oral multi-BCR/ABL and Src family tyrosine kinase inhibitor approved for use in patients with chronic myelogenous leukemia (CML).
Results showing the binding of dasatinib to BLK containing amino acid sequence 241-494 are depicted in FIG. 3. The expression plasmids (e.g. 241-494) indicated in the legend are named to show the amino acid locations of the start and stop of the BLK sequence used. The plasmids were used to transduce parental U2OS cells. The cells were then treated with dasatanib for 3 hrs and the BLK-PL fusions were quantified by adding lysis buffer, EA and chemiluminescent substrate.

[4] abbreviates: PL-Bak, U2OS, overnight, luminescence.

T2 sequence (P51451 241-494): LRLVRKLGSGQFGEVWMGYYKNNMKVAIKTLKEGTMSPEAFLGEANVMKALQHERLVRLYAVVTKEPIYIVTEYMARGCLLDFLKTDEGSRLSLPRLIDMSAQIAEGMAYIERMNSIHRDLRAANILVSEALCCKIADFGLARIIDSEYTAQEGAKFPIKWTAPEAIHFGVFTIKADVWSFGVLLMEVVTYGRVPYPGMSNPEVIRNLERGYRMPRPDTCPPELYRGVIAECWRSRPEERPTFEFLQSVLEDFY
CYP 17A-PL fusion, sequence (P05093 with tags, fused parts or gaps): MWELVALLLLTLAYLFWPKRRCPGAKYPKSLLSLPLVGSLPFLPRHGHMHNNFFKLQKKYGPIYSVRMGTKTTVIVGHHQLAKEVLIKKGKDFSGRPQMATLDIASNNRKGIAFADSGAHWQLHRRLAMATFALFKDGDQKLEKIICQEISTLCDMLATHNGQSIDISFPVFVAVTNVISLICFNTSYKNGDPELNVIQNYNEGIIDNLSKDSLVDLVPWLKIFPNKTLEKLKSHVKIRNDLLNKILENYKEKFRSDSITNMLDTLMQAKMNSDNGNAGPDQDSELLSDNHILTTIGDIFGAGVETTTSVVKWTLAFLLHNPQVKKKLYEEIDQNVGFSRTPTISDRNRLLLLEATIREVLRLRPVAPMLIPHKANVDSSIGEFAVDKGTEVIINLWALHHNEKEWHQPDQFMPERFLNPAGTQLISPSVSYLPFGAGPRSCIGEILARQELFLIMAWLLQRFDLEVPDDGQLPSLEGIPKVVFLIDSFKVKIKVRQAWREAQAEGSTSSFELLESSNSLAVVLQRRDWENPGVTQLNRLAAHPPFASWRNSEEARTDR
BCL-2 / PL-Bak, sequence (P10415 whole entry, the tested form may be a part): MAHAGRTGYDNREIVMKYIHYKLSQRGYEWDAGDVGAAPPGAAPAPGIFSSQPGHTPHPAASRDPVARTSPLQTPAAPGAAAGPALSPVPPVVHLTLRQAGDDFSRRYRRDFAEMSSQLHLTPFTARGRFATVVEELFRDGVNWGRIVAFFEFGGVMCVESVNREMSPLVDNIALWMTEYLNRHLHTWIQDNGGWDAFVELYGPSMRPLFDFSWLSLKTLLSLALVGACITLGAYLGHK
BCL-2 / PL-Bim, sequence (P10415 whole entry): as the sequence (P10415 whole entry, the tested form may be a part) above
BCL-2 / PL-Bax, sequence (P10415 whole entry): as the sequence (P10415 whole entry, the tested form may be a part) above
G9A(918-1198)-PL, sequence (Q96KQ7 with tags, fused parts or gaps): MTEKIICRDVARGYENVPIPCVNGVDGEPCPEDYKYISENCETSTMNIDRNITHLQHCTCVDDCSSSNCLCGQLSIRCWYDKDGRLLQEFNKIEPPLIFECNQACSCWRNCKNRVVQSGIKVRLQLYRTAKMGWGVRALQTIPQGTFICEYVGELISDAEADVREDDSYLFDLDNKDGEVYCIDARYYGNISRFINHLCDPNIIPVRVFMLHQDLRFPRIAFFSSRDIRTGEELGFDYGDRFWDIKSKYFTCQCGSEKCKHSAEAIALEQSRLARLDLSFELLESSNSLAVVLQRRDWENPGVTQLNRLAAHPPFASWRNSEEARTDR

Take `CC1(C)CCC(c2ccc(Cl)cc2)=C(CN2CCN(c3ccc(C(=O)NS(=O)(=O)c4ccc(N[C@H](CCN5CCOCC5)CSc5ccccc5)c(S(=O)(=O)C(F)(F)F)c4)cc3)CC2)C1` [ABT-263]: at BCL-2 / PL-Bax, the HillSlope is −1.216, the “Bottom (best-fit)” value is on record as 5900, the “Top (best-fit)” value is 31800 and the “effect on BCL-2 stabilization of Bax” value is “somewhat similar effect”. Also, on BCL-2 / PL-Bim, the HillSlope is −1.635, the “Bottom (best-fit)” value turned out to be 6740, the “Top (best-fit)” value is reported as 136900 and the “effect on BCL-2/Bim stabilization” value is recorded as “prevented the stabilizing effect”. For the same molecule, at BCL-2 / PL-Bak (PL-Bak), the HillSlope is listed as −0.4082. Moreover, the “Bottom (best-fit)” value at BCL-2 / PL-Bak (setting [4]) is reported as −14342. Besides, the “effect on BCL-2 binding to and stabilization of Bak” value on BCL-2 / PL-Bak (overnight, U2OS) is reported as “little effect”.
In the case of `CN(C)CC[C@H](CSc1ccccc1)Nc1ccc(S(=O)(=O)NC(=O)c2ccc(N3CCN(Cc4ccccc4-c4ccc(Cl)cc4)CC3)cc2)cc1[N+](=O)[O-]` [ABT-737], on BCL-2 / PL-Bax, the HillSlope is on record as −1.485, the “Bottom (best-fit)” value came out at 6973, the “Top (best-fit)” value is 31292 and the “effect on BCL-2 stabilization of Bax” value is “somewhat similar effect”. On BCL-2 / PL-Bim, the HillSlope is reported as −1.898, the “Bottom (best-fit)” value is listed as 7774, the “Top (best-fit)” value came out at 139290 and the “effect on BCL-2/Bim stabilization” value is listed as “prevented the stabilizing effect”. Also, the HillSlope on BCL-2 / PL-Bak (PL-Bak) is listed as −0.5348. For the same molecule, on BCL-2 / PL-Bak (setting [4]), the “Bottom (best-fit)” value is listed as 5446 and the “Top (best-fit)” value came to 11602. Also, the “effect on BCL-2 binding to and stabilization of Bak” value on BCL-2 / PL-Bak (overnight, U2OS) was “little effect”.
As for `C[C@]12CC[C@H](O)CC1=CC[C@@H]1[C@@H]2CC[C@]2(C)C(c3cccnc3)=CC[C@@H]12` [Abiraterone], at CYP 17A-PL fusion (stabilization, gain of signal), the EC50 is 0.252 nM.
With `Cc1sc2c(c1C)C(c1ccc(Cl)cc1)=N[C@@H](CC(=O)OC(C)(C)C)c1nnc(C)n1-2` [JQ1], in the assay with BRD4 (1)-PL fusion, the “stability of fusion protein following compound binding” value is reported as “increase in stability”.
In the case of `CC(=O)N1CCN(c2ccc(OCC3COC(Cn4ccnc4)(c4ccc(Cl)cc4Cl)O3)cc2)CC1` (stereo not drawn) [Ketoconazole], the HillSlope at CYP 17A-PL fusion worked out at 1083. Moreover, the “stabilization of CYP 17 A domain fusion” value on CYP 17A-PL fusion (HEK cells, 3-6 hrs) is on record as “stabilization”. On CYP 17A-PL fusion (HEK cells, 3-6 hrs at 37° C.), the “Bottom (best-fit)” value was found to be 1.230e+006 and the “Top (best-fit)” value is 2.348e+006.
As to `COc1cc2c(NC3CCN(C(C)C)CC3)nc(C3CCCCC3)nc2cc1OCCCN1CCCC1` [UNC0638], on G9A(918-1198)-PL (A549 cells, cycloheximide), the “half-life of fusion protein compared to fusion protein not exposed to the binding partner” value is “greater”. For the same molecule, the “percent change in luminescence” value at G9A(918-1198)-PL (after 100 minutes of cycloheximide, A549 cells pretreated 6 hrs) is “minimal”.
For `N#Cc1ccc(N(Cc2ccc(Br)cc2)n2cnnc2)cc1` [YM511, 4-[[(4-Bromophenyl)methyl]-4H-1,2,4-triazol-4-ylamino]benzonitrile], the “stabilization of CYP 19A fusion peptide” value in assay [1] is listed as “stabilized”.
Consider `CC(C)(C#N)c1cc(Cn2cncn2)cc(C(C)(C)C#N)c1` [anastrazole], for which the “stabilization of CYP 19A fusion peptide” value in assay [1] was “stabilized”.
`Cc1nc(Nc2ncc(C(=O)Nc3c(C)cccc3Cl)s2)cc(N2CCN(CCO)CC2)n1.O` [dasatinib, N-(2-chloro-6-methylphenyl)-2-[[6-[4-(2-hydroxyethyl)-1-piperazinyl]-2-methyl-4-pyrimidinyl]amino]-5-thiazole carboxamide monohydrate]: on BLK (241-494)-PL fusion [2] (BLK-PL vs MEK-PL fusions), the binding specificity entry is recorded as “specific for binding to the BLK fusion containing the ATP binding site”. Besides, the “signal (BLK-PL fusion) compared to cells incubated with U0126 and PD035901” value at BLK (241-494)-PL fusion [2] (U2OS cells, over a period of time) was “gain in signal”. For the same molecule, on BLK (241-494)-PL fusion [3], the “affinity of BLK-PL fusion with dasatinib” value is “highest affinity”.

The EC50 is the midpoint of the concentration-response curve. Low values mean an effect from little substance, high ones a need for much substance.
